Experimental findings from patent US6525059B1, “Substituted pyrazoles as p38 kinase inhibitors” (G. D. Searle & Company, priority 1998, dated 2003) are described below.

Data set [1] addresses T1, human GST-p38 kinase alpha (Homo sapiens, UniProt Q16539).
T1 construct: The coding region of the human p38a cDNA was obtained by PCR-amplification from RNA isolated from the human monocyte cell line THP.1; made in house; host or cells: E. coli DH10B
Kind of data set: p38 kinase in vitro assay, second format, phosphorylation of EGFRP with 33P-ATP. The data set is classed as biochemical. The note with it: read-out: p38α Kinase Assay IC50. In outline:
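Activated human GST-p38α (pre-activated with GST-MKK6, 1 h, 30 °C) phosphorylates EGFR 21-mer peptide (200 μM) with 50 μM ATP plus γ-33P-ATP, pH 7.5, 60 min at room temperature. Unreacted ATP removed by AG 1×8 resin; supernatant scintillation-counted.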

In the next data set the test system is human TNF. Kind of data set: TNF inhibition: human whole blood assay. Format: cell-based. The note with it: Homo sapiens, LPS, read-out: TNF Inhibition-Human Whole Blood Assay.
In the next data set the test system is TNF-α. Kind of data set: Rat assay: LPS-challenged rats, serum TNF-α by ELISA. The data set is classed as in vivo. The note with it: Rattus norvegicus, po; for inhibition in vivo at 1 mg/kg: Table 9, dose 1 mg/kg; for inhibition in vivo at 5 mg/kg: Table 9, dose 5 mg/kg. (In an ELISA, binding on a coated surface is turned into a signal by an enzyme label.)
The mark [2] stands for this setting: read-out: Rat LPS Assay % Inhibition.

Where “and” joins values, the source holds several entries; their conditions need not be identical. Equal values may be shown once. Where a name gives a salt, the structure may show the parent alone. Read-outs that look alike come from different tables or passages of the source. Some results are limits rather than exact numbers.

T1 sequence (Q16539 whole entry): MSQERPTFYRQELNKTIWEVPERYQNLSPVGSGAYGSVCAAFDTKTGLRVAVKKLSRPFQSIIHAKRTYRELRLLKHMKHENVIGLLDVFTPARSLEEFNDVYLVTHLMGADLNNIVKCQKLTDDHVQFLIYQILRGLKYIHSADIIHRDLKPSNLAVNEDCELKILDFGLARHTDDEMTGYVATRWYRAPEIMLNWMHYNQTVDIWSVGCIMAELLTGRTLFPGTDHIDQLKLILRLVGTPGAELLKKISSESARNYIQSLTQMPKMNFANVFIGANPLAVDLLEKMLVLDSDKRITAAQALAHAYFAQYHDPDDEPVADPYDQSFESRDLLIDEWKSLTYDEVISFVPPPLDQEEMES

The compound `NC(=O)c1cc(-c2cn[nH]c2-c2ccc(F)cc2)ccn1` [Example A-223, 4-[3-(4-fluorophenyl)-1H-pyrazol-4-yl]-2-pyridinecarboxamide] gave a melting point of 230 to 231 °C.
In turn, `CCN(CC)c1n[nH]c(-c2ccc(Cl)cc2)c1-c1ccncc1` [Example A-163, 5-(4-chlorophenyl)-N,N-diethyl-4-(4-pyridinyl)-1H-pyrazol-3-amine] showed a melting point of 260 to 261 °C.
Still for that read-out and setting: the value for `CSc1ccc(-c2[nH]nc(N3CCN(C)CC3)c2-c2ccncc2)cc1` [Example A-423, 1-[5-(4-thiomethoxyphenyl)-4-(4-pyridinyl)-1H-pyrazol-3-yl]-4-methylpiperazine] was 275.6 to 281.9 °C.
Consider `CN1CCN(c2[nH]nc(C3CCCCC3)c2-c2ccncc2)CC1` [Example A-485, 1-[cyclohexyl-4-(4-pyridinyl)-1H-pyrazol-3-yl]-4-methylpiperazine], for which the melting point is > 300 °C (dec.).
As for `Cn1nc(-c2ccc(F)cc2)c(-c2ccncc2)c1C1CC1` [Example A-191], the melting point is 129 to 130 °C.
Consider `CN1CCN(c2n[nH]c(-c3cccc(C#N)c3)c2-c2ccncc2)CC1` [Example A-422, 1-[5-(3-cyanophenyl)-4-(4-pyrdinyl)-1H-pyrazol-3-yl]4-methylpiperazine], for which the melting point was 223.4 to 224.3 °C.
`NNc1cc(-c2c[nH]nc2-c2cccc(Cl)c2)ccn1` [Example A-219, 4-[3-(3-chlorophenyl)-1H-pyrazol-4-yl]-2(1H)-pyridinone hydrazone] had a melting point of 163 to 164 °C.
Same read-out and setting: in the case of `Fc1ccc(-c2n[nH]cc2-c2ccnc(Cl)n2)cc1` [Example A-299, 2-Chloro-4-[3-(4-fluorophenyl)-1H-pyrazol-4-yl]pyrimidine] it was 204 to 205 °C.
The same measure, in the same setting: the value for `Nc1nccc(-c2cn[nH]c2-c2ccc(F)cc2)n1` [Example A-306, 4-[3-(4-fluorophenyl)-1H-pyrazol-4-yl]-2-pyrimidinamine] was 273 to 274 °C.
On the same count and under the same terms, the value for `CCNc1cc(-c2c[nH]nc2-c2cccc(Cl)c2)ccn1` [Example A-222, 4-[3-(3-chlorophenyl)-1H-pyrazol-4-yl]-N-ethyl-2-pyridinamine] was 186 to 187 °C; that for `CS(=O)(=O)N1CCN(c2[nH]nc(-c3ccc(Cl)cc3)c2-c2ccncc2)CC1` (hydrate or solvate) [Example A-320, 1-[5-(4-chlorophenyl)-4-(4-pyridinyl)-1H-pyrazol-3-yl]-4-(methylsulfonyl)piperazine, monohydrate] was 245 to 248 °C.
`Cc1cc(-c2n[nH]cc2-c2ccncc2)ccc1Cl` [Example A-199, 4-[3-(4-chloro-3-methylphenyl)-1H-pyrazol-yl]pyridine] had a melting point of 198.17 °C.
Still for that read-out and setting: the value for `Cc1cccc(-c2[nH]ncc2-c2ccncn2)c1` [Example A-309, 4-[3-(3-methylphenyl)-1H-pyrazol-4-yl]pyrimidine] was 151.67 °C; that for `O=C(C(=C1SCS1)c1ccncc1)c1ccc(I)cc1` [Example A-401] was 257.6 to 257.7 °C.
Take `CN1CCN(c2n[nH]c(-c3ccc(N(C)C)cc3)c2-c2ccncc2)CC1` [Example A-421, 1-[5-(4-dimethylaminophenyl)-4-(4-pyridinyl)-1H-pyrazol-3-yl]-4-methylpiperazine]: the melting point is > 300 °C (dec.).
For the compound `CN1CCN(c2n[nH]c(-c3ccc(C(F)(F)F)cc3)c2-c2ccncc2)CC1` [Example A-425], the melting point is 240.5 °C (dec.).
As to `Clc1ccccc1-c1[nH]ncc1-c1ccncc1` [Example A-209, 4-[3-(2-chlorophenyl)-1H-pyrazol-4-yl]pyridine], the melting point was found to be 208.46 °C.
`Cc1nn(C)c(-c2ccc(Cl)cc2)c1-c1ccncc1` [Example A-32, 4-[5-(4-chlorophenyl)-1,3-dimethyl-1H-pyrazol-4-yl]pyridine] came in with a melting point of 88.6 °C.
The same measure, in the same setting: the value for `O.O.O=C(O)CCC(=O)N1CCN(c2n[nH]c(-c3ccc(Cl)cc3)c2-c2ccncc2)CC1` (hydrate or solvate) [A-321 (dihydrate), 4-[5-(4-chlorophenyl)-4-(4-pyridinyl)-1H-pyrazol-3-yl]-γ-oxo-1-piperazinebutanoic acid, dihydrate] was 281 to 283 °C (dec.).
As to `Fc1ccc(-c2n[nH]cc2-c2ccnc(NCC3CCNCC3)c2)cc1` [Example A-351, 4-[3-(4-fluorophenyl)-1H-pyrazol-4-yl]-N-(4-piperidinylmethyl)-2-pyridinamine], the IC50 in data set [1] (Table 9, 10% DMSO) is 0.27 µM; in the data set on human TNF (Table 9, human whole blood), 0.49 µM. This compound also showed an inhibition in vivo at 20 mg/kg with TNF-α (Table 9, dose 20 mg/kg) of 0%.
As to `NC1CCN(c2[nH]nc(-c3ccc(F)cc3)c2-c2ccncc2)CC1` [Example A-365, 1-[5-(4-fluorophenyl)-4-(4-pyridinyl)-1H-pyrazol-3-yl]-4-piperidinamine, trihydrochloride], the IC50 in data set [1] (Table 9, 10% DMSO) turned out to be 0.032 µM. Also, the IC50 in the data set with human TNF (Table 9, human whole blood) amounted to 0.057 µM. In the data set on TNF-α (setting [2]), the inhibition in vivo at 1 mg/kg is 12% and the inhibition in vivo at 5 mg/kg was 50%. Further, the inhibition in vivo at 20 mg/kg in the data set on TNF-α (Table 9, dose 20 mg/kg) stood at 95%.
Take `CCN(CC)C1CCN(c2n[nH]c(-c3ccc(F)cc3)c2-c2ccncc2)CC1` [Example A-388, 1-[5-(4-fluorophenyl)-4-(4-pyridinyl)-1H-pyrazol-3-yl]-N,N-diethyl-4-piperidinamine, trihydrochloride]: the IC50 in data set [1] (Table 9, 10% DMSO) stood at 0.21 µM; in the data set with human TNF (Table 9, human whole blood), 0.34 µM. In addition, in the data set with TNF-α (setting [2]), the inhibition in vivo at 5 mg/kg is 67%. The inhibition in vivo at 20 mg/kg with TNF-α (Table 9, dose 20 mg/kg) stood at 97%.
In the case of `Fc1ccc(-c2n[nH]c(N3CCC(N4CCCC4)CC3)c2-c2ccncc2)cc1` [Example A-357, 4-[3-(4-fluorophenyl)-5-(4-(1-pyrrolidinyl)-1-piperidinyl]-1H-pyrazol-4-yl]pyridine, trihydrochloride], the IC50 in data set [1] (Table 9, 10% DMSO) was determined as 0.12 µM; with human TNF (Table 9, human whole blood), 0.25 µM. The inhibition in vivo at 20 mg/kg in the data set on TNF-α (Table 9, dose 20 mg/kg) was 74%.
In the case of `C#CCn1nc(N2CCNCC2)c(-c2ccncc2)c1-c1ccc(Cl)cc1` [Example A-318, 1-[5-(4-chlorophenyl)-4-(4-pyridinyl)-1-(2-propynyl)-1H-pyrazol-3-yl]piperazine, trihydrochloride monohydrate], the IC50 in data set [1] (Table 8, 10% DMSO) was 0.58 µM and 0.37 µM and 0.6 µM; with human TNF (Table 8, human whole blood), 0.167 µM. The inhibition in vivo at 3 mg/kg with TNF-α (Table 8, dose 3.0 mg/kg, read-out: Rat LPS Assay % Inhibition) came out at 54%.
On to `CCN(CC)CCCC(C)Nc1nccc(-c2c[nH]nc2-c2ccc(F)cc2)n1` (centres unmarked) [Example A-366, N1,N1-diethyl-N4-[4-[3-(4-fluorophenyl)-1H-pyrazol-4-yl]-2-pyrimidinyl]-1,4-pentanediamine], for which the IC50 in data set [1] (Table 9, 10% DMSO) was 0.041 µM and 0.06 µM and 0.04 µM. Further, the IC50 in the data set on human TNF (Table 9, human whole blood) was determined as 0.29 µM. For the same compound, in the data set with TNF-α (setting [2]), the inhibition in vivo at 1 mg/kg amounted to 6% and the inhibition in vivo at 5 mg/kg came out at 45%. The inhibition in vivo at 20 mg/kg in the data set on TNF-α (Table 9, dose 20 mg/kg) was determined as 92%.
Consider `CCN(CC)CCCC(C)Nc1cc(-c2c[nH]nc2-c2ccc(F)cc2)ccn1` (centres unmarked) [Example A-377, N1,N1-diethyl-N4-[4-[3-(4-fluorophenyl)-1H-pyrazol-4-yl]-2-pyridinyl]-1,4-pentanediamine], for which, in data set [1] (Table 9, 10% DMSO), the IC50 is 0.004 µM and 0.0019 µM. The IC50 in the data set on human TNF (Table 9, human whole blood) is 0.67 µM. In addition, in the data set on TNF-α (setting [2]), the inhibition in vivo at 1 mg/kg was 32% and the inhibition in vivo at 5 mg/kg came to 67%. Also, in the data set on TNF-α (Table 9, dose 20 mg/kg), the inhibition in vivo at 20 mg/kg worked out at 84%.
Regarding `CCOC(=O)N1CCC(Nc2cc(-c3c[nH]nc3-c3ccc(F)cc3)ccn2)CC1` [Example A-356, ethyl 4-[[4-[3-(4-fluorophenyl)-1H-pyrazol-4-yl]-2-pyridinyl]amino]-1-piperidinecarboxylate], the IC50 in data set [1] (Table 9, 10% DMSO) is less than 0.01 µM; in the data set on human TNF (Table 9, human whole blood) it was 5.3 µM. The inhibition in vivo at 20 mg/kg in the data set with TNF-α (Table 9, dose 20 mg/kg) was determined as 73%.
As for `CN(C)C1CCN(c2[nH]nc(-c3ccc(F)cc3)c2-c2ccncc2)CC1` [Example A-360, 1-[5-(4-fluorophenyl)-4-(4-pyridinyl)-1H-pyrazol-3-yl]-N,N-dimethyl-4-piperidinamine, trihydrochloride], the IC50 in data set [1] (Table 9, 10% DMSO) was 0.06 µM. Moreover, in the data set on human TNF (Table 9, human whole blood), the IC50 came to 0.5 µM. Also, in the data set with TNF-α (setting [2]), the inhibition in vivo at 1 mg/kg worked out at 0% and the inhibition in vivo at 5 mg/kg turned out to be 14%. The inhibition in vivo at 20 mg/kg in the data set with TNF-α (Table 9, dose 20 mg/kg) amounted to 95%.
`OCC(Nc1cc(-c2c[nH]nc2-c2ccc(F)cc2)ccn1)c1ccccc1` (stereo not drawn) [Example A-376, (βR)-β-[[4-[3-(4-fluorophenyl)-1H-pyrazol-4-yl]-2-pyridinyl]amino]benzene ethanol]: the IC50 in data set [1] (Table 9, 10% DMSO) turned out to be 0.032 µM; in the data set with human TNF (Table 9, human whole blood), 1 µM. Further, in the data set with TNF-α (Table 9, dose 20 mg/kg), the inhibition in vivo at 20 mg/kg turned out to be 24%.
As for `CN1CCN(Cc2n[nH]c(-c3ccc(F)cc3)c2-c2ccncc2)CC1` [A-313, Step 3, 1-[[5-(4-fluorophenyl)-4-(4-pyridinyl)-1H-pyrazol-3-yl]methyl]-4-methylpiperazine], the IC50 amounted to 0.37 µM in data set [1] (Table 8, 10% DMSO) and 0.12 µM with human TNF (Table 8, human whole blood). In the data set with TNF-α (Table 8, dose 20.0 mg/kg), this compound displayed an inhibition in vivo at 20 mg/kg of 96%.
Regarding `CCN(CC)CCCC(C)Nc1cc(-c2c[nH]nc2-c2ccc(Cl)cc2)ccn1` (centres unmarked) [Example A-369, N4-[4-[3-(4-chlorophenyl)-1H-pyrazol-4-yl]-2-pyridinyl]-N1,N1-diethyl-1,4-pentanediamine], the IC50 in data set [1] (Table 9, 10% DMSO) was 0.019 µM and 0.011 µM and 0.0027 µM; in the data set with human TNF (Table 9, human whole blood) it was 0.84 µM. In the data set on TNF-α (setting [2]), the inhibition in vivo at 5 mg/kg turned out to be 52%. The same compound had an inhibition in vivo at 20 mg/kg in the data set on TNF-α (Table 9, dose 20 mg/kg) of 94%.

A word on the melting point: it is the temperature of the solid-liquid transition.
